Test results: the CheMixHub viscosity set

Assay: xn = mol fraction of the nth substance listed

COC(C)=O + CCCCCCCCCCCC
298.15 K, 101.3 kPa
Conditions | viscosity [mPa·s]
x1 = 0.09 | 1.243
x1 = 0.213 | 1.08
x1 = 0.3361 | 0.9577
x1 = 0.4514 | 0.8306
x1 = 0.5533 | 0.7377
x1 = 0.6236 | 0.6777
x1 = 0.6972 | 0.6144
x1 = 0.7671 | 0.557
x1 = 0.8924 | 0.4527
x1 = 0.9377 | 0.4171

CCCCCCCC(=O)OCC + CCCCCCCCCCCCCCCC
Conditions | viscosity [mPa·s]
295.04 K, 103 kPa, x2 = 0.5 | 2.176
298.65 K, 103 kPa, x2 = 0.25 | 1.72
312.63 K, 101 kPa, x2 = 0.5 | 1.583

COC(C)=O + CCCCCCCCCCCCCCCC
298.15 K, 101.3 kPa
Conditions | viscosity [mPa·s]
x1 = 0.0393 | 2.924
x1 = 0.118 | 2.619
x1 = 0.3657 | 1.819
x1 = 0.4814 | 1.491
x1 = 0.5357 | 1.35
x1 = 0.652 | 1.086
x1 = 0.7625 | 0.8431
x1 = 0.8682 | 0.6349
x1 = 0.9609 | 0.4379

COCCOC + CCCCCCCCCO
101 kPa
Conditions | viscosity [mPa·s]
293.15 K, x1 = 0.05508 | 9.45
293.15 K, x1 = 0.1012 | 7.813
293.15 K, x1 = 0.2007 | 5.336
293.15 K, x1 = 0.2922 | 3.86
293.15 K, x1 = 0.393 | 2.747
293.15 K, x1 = 0.494 | 1.994
293.15 K, x1 = 0.5924 | 1.477
293.15 K, x1 = 0.7015 | 1.076
293.15 K, x1 = 0.7986 | 0.812
293.15 K, x1 = 0.907 | 0.588
293.15 K, x1 = 0.9472 | 0.524
303.15 K, x1 = 0.04903 | 6.486
303.15 K, x1 = 0.1035 | 5.323
303.15 K, x1 = 0.2044 | 3.716
303.15 K, x1 = 0.2954 | 2.745
303.15 K, x1 = 0.3981 | 1.979
303.15 K, x1 = 0.4938 | 1.485
303.15 K, x1 = 0.5991 | 1.098
303.15 K, x1 = 0.7049 | 0.816
303.15 K, x1 = 0.7958 | 0.643
303.15 K, x1 = 0.902 | 0.492
303.15 K, x1 = 0.9436 | 0.446
313.15 K, x1 = 0.05382 | 4.747
313.15 K, x1 = 0.1054 | 4
313.15 K, x1 = 0.2052 | 2.936
313.15 K, x1 = 0.2949 | 2.233
313.15 K, x1 = 0.3955 | 1.66
313.15 K, x1 = 0.4901 | 1.279
313.15 K, x1 = 0.5829 | 1.007
313.15 K, x1 = 0.7 | 0.739
313.15 K, x1 = 0.8016 | 0.58
313.15 K, x1 = 0.9013 | 0.457
313.15 K, x1 = 0.9469 | 0.41

COC(C)=O + CCCCCCCCO
viscosity [mPa·s], 101 kPa
Conditions | x2 = 0.053 | x2 = 0.1119 | x2 = 0.1776 | x2 = 0.2515 | x2 = 0.3351 | x2 = 0.4305 | x2 = 0.5404 | x2 = 0.6684 | x2 = 0.8194
298.15 K | 0.436 | 0.505 | 0.601 | 0.736 | 0.932 | 1.232 | 1.722 | 2.573 | 4.177
303.15 K | 0.414 | 0.478 | 0.564 | 0.685 | 0.86 | 1.126 | 1.554 | 2.288 | 3.646
308.15 K | 0.395 | 0.454 | 0.532 | 0.64 | 0.795 | 1.029 | 1.402 | 2.03 | 3.174
313.15 K | 0.374 | 0.429 | 0.5 | 0.596 | 0.734 | 0.941 | 1.267 | 1.808 | 2.773
